The source of these data is US20220031632A1, “NANOPARTICLE COMPOSITIONS AND USES THEREOF” (OP-T LLC, priority 2020, published 2022).

Entries after “also recorded” stand apart in the source; their conditions may differ. Where no end group is shown, it is not given here.

The subject of data set [1] is CD3+ T cells and antigen presenting cells (APC). Put plainly: Fluorescent peptide binding to PBMCs from MS patients by flow cytometry. The class given is cell-based, human. The following applies: fluorescenated peptides. As to the method:
In some embodiments, the size (length—i.e. number of amino acids) of the peptide may matter for disease prevention capacity. […] In some embodiments, use of different length peptides may be advantageous in treatment of different diseases as each disease may be driven primarily by one cell type or another.
Peripheral blood mononuclear cells from MS patients were stained then gated on CD3^+ for T cells or on CD3^− for antigen presenting cells (APC) were analyzed for peptide binding levels. Different cells bind different peptides with different intensities as determined by flow cytometry. There were 24 subjects in each test.

A further data set deals with C57BL/6 mice. Put plainly: EAE mouse model, daily clinical score. It counts as in vivo. An excerpt: EAE was then induced and the mice started to show symptoms on day 10, which is standard for these mice under these conditions. This is further depicted in FIG. 11. On days 13, 20, and 27, the KGYY6 group of mice receive a boost of peptide, while the other group again received PBS via IV injection. […] By day 13, there was a statistically significant difference that lasted throughout the experiment. In FIG. 11—*—asterisks—denote p-value: *—one asterisk is <0.05; **—two asterisks is <0.01; ***—three asterisks is <0.001; and ****-four asterisks is <0.0001. This is a two-way ANOVA with Sidak's multiple comparisons test. Arrows in above lines in FIG. 11 represent days −3, −1, 13, 20, and 27, which correspond to days on which the mice received the KGYY6. Mice were disease scored daily in this study as described in more detail below. […]
All mice were monitored daily for disease and scored in the following manner: 0—no abnormalities; 0.5—clutching hind limbs; 1—limp tail or weak hind limbs and/or wobbly gait; 1.5—limp tail and clutching hind limbs; 2—limp tail and weak hind limbs and/or wobbly gait wherein the mouse supports itself and propels itself using hind limbs; 2.5—limp tail and weak hind limbs and/or wobbly gait wherein the mouse cannot support and propel itself using hind limbs, but the paws are moving. […]

A further data set deals with ApoE−/− mice. Nature of the data set: Glucose tolerance testing in ApoE-/- mice. It counts as in vivo, mouse. The settings on record: n=14.
Data set [2] concerns NOD mice. Put plainly: Diabetes prevention in NOD mice treated with peptides. It counts as in vivo, mouse. The settings on record: for diabetes onset (blood glucose >250 mg/dl): NOD mice treated with different sizes of peptides, n=10. As to the method:
(a) The amino acid sequence of mouse CD154 is depicted, with amino acids known to interact with CD40 shown in bold. A 15 amino acid sequence is highlighted in grey and aligned with the same motif in human CD154. A previously studied peptide is highlighted. (b) NOD mice were treated with different sizes of peptides, as indicated (n=10 in all groups). Mice were monitored for diabetes onset (blood glucose >250 mg/dl). Differences were significant by two-way ANOVA; p<0.0001.
FIG. 3 includes sub-parts FIGS. 3A and 3B. […] The percent of subjects that developed diabetes in the KGYY15 subjects was much lower, as compared with the RGD peptide and the scrambled peptide. KGYY15 diabetes prevention is sequence dependent, and several amino acid positions are critical for its function. (a) KGYY15-treated mice were compared with mice treated with a scrambled peptide or a peptide targeting the RGD region (sequences indicated above the graph). (b) KGYY15-treated mice were compared with mice treated with a 15-mer peptide series in which single amino acids, as indicated, were substituted for glycine. L137; Y144; T146; M147; N150; n=10 in all groups shown in (a) and (b), except for L137, where n=9. Differences were significant by two-way ANOVA; p<0.0001

Data set [3] has as its system NOD mice. Put plainly: Immunogenicity: serum antibodies to KGYY15 or sCD154 by western blot. It counts as in vivo, mouse. The settings on record: 1 mg/kg weekly for 7 weeks. As to the method: (§1) NOD mice were injected weekly for 7 weeks with 1 mg/kg of KGYY15. In FIG. 4A, serum was collected from injected or control mice and used, followed by anti-mouse-IgG secondary antibody, in western blots for detection of KGYY15 peptide or soluble CD154 (sCD154; KGYY15 and sCD154 sizes are indicated with arrows). […] As a standard, KGYY15-biotin was run and detected with streptavidin-HRP. Experiment was done twice, pooling serum from 2 and 3 mice in each experiment, respectively. In FIGS. 4B and 4C, sorted splenic APC from KGYY15 treated mice were loaded with KGYY15 or not. T cells from KGYY15 treated mice were CFSE labelled then exposed to the autologous APC (+/− KGYY15) and incubated for 5 days. […] Representative histogram of CFSE dilution: Black line—T cells alone; Grey tinted—T cells+APC alone; Dotted line—T cells+APC loaded with KGYY15. Graph depicts cumulative data (n=5 in each group).
In general terms: In western blotting, separated proteins are transferred to a membrane and probed.

Data set [4] has as its system T cells from KGYY15 treated mice. Nature of the data set: T cell proliferation (CFSE dilution) with autologous APC loaded with KGYY15. It counts as cell-based, mouse. The settings on record: APC +/- KGYY15, 5 days, n=5. As to the method: as §1
Data set [5] relates to NOD mice. Put plainly: Reversal of overt hyperglycemia in new onset diabetic NOD mice, daily KGYY15. It counts as in vivo, mouse. As to the method: FIG. 2, which includes FIG. 2A-2D, is based on a study of the use of KGYY15 to treat NOD mice. […] Immediately after diabetes onset (blood glucose >250 mg/dl; n=9), mice were treated daily with KGYY15 and blood glucose was monitored. […] FIG. 2C is a graph showing Islet insulitis scores in reversed and non-reversed mice: 0, no infiltration (black); 1, 25% infiltration (striped); 2, 50% infiltration (dark grey); 3, 75% infiltration (light grey); 4, 100% infiltration (white). FIG. 2D is a graph showing Islet insulin granulation scores: 0, less than 25% granulation; 1, 25-50% granulation; 2, 50-75% granulation; […], 75-100% granulated. Data is represented as the mean±SEM; ****p<0.0001 by two-tailed unpaired t test.

Another data set deals with T1D dogs. Nature of the data set: Longstanding T1D domestic dogs treated with i.v. infusions of dog 15-mer peptide. The following applies: before first infusion vs several weeks after initiation. The class given is in vivo. As to the method:
Four longstanding T1D domestic dogs were treated with i.v. infusions of dog 15-mer peptide, twice in the first week then weekly thereafter. Levels of fructosamine were measured before the first infusion and several weeks after initiation of treatment.

In the case of “6-mer: fluorescenated version of the 6-mer peptide used to stain PBMCs from MS patients (AKKGYY; also: fluorescent label)”, the “binding to T cells compared with APCs” value in data set [1] was “stained both T cells and APCs equally well”.
The same measure, in the same setting: then “15-mer: fluorescenated version of the 15-mer peptide used to stain PBMCs from MS patients (VLRWAPKGYYTISSN; also: fluorescent label)”, with “bound better to T cells than APCs”.
AKKGYY [KGYY6]: the “severity of EAE (disease course, clinical score)” value in the data set on C57BL/6 mice (i.v. pretreatment before EAE induction plus boosts, vs PBS control) was “significantly less severe; also recorded: ameliorates EAE; also recorded: significantly reduced the severity of the EAE symptoms”. In addition, the “severity of EAE” value in the data set on C57BL/6 mice (no pretreatment, treatment delayed until visible disease symptoms) was “may significantly reduce the severity of EAE”. Moreover, in the data set on ApoE−/− mice, the glucose tolerance result is given as “statistically significant improvement” and the insulin sensitivity entry was “statistically significant improvement; also recorded: may improve”.
For the substance “VLQWAKKGYYTMKSN (VLQWAKKGYYTMKSK) [KGYY15]”, the entries for the “diabetes onset (blood glucose >250 mg/dl)” value in the data set on NOD mice [2] and with NOD mice [2] (listed as 15-mer CD154-derived peptide) were “prevent the onset of T1D” and “prevents diabetes”, respectively. Further, the “percent of subjects that developed diabetes” value in the data set on NOD mice [2] (NOD mice, 35 weeks, compared with RGD peptide and scrambled peptide) was “much lower”. In the data set on NOD mice [3] (serum western blot), the “antibody production to the peptide” value is “no antibodies to the peptide had been generated; also recorded: does not elicit antibody production”. The immunogenicity entry with NOD mice [3] (NOD mice, 1 mg/kg) is recorded as “does not appear to be immunogenic”. Besides, the “T cell proliferation by CFSE dilution” value in data set [4] is “no proliferation was detected”. In addition, the “reversal of overt hyperglycemia” value with NOD mice [5] (NOD mice treated daily after diabetes onset, n=9) is “reverses overt hyperglycemia”. Moreover, the “mice with reversed hyperglycemia” value with NOD mice [5] (new onset diabetic mice) is given as “approximately 60%”.
Turning to “VLRWA PKGYY TISSN (chain 1 VLRWAPKGYYTISSN; chain 2 VLRWAPKGYYTISSN) [Dog 15-mer peptide]”, in the data set with T1D dogs, the fructosamine levels entry is reported as “significantly decreases fructosamine levels”.
